In US20140086827A1, “Serum S100B And Uses Thereof” (THE CLEVELAND CLINIC FOUNDATION, priority 2011, published 2014):
“Also recorded” adds a separate entry of the source. Where two headings read alike, the source gives them in different places.

What was measured:
[1] = tested on: pilocarpine-induced SE; assay: Pilocarpine-induced status epilepticus in rats (EEG, Racine's scale, mortality); type: in vivo, rat; details: for time to onset of SE: rats that developed SE
Experimental: Rats (male Sprague-Dawley 225-250 g) were injected with methylscopolamine (0.5 mg/kg, i.p., Sigma-Aldrich) and 30 minutes after with pilocarpine (340 mg/Kg, Sigma-Aldrich). Data obtained from a total of 45 rats was analyzed (see also FIG. 14B). Development of seizure and status epilepticus was evaluated by behavioral (Racine's scale) and EEG assessment. […] IL-RA data included here are relative to [Marchi N., et al. (2009) Neurobiol Dis 33: 171-181]. IL-RA was administrated in the tail vein (30 μg/kg) 2 hours before scopolamine/pilocarpine treatment.
Note that blood samples were taken at baseline, after each treatment and immediately before (or at onset) of status epilepticus (SE), as evaluated by EEG and behavioral (Racine's Scale) assessments. This methodology has been used in the past to evaluate the presence of BBB damage and inflammatory process preceding seizure onset [Uva L., et al. (2008) Neuroscience 151: 303-312].
Stereotactic electrode implantation was performed in rats under isofluorane anaesthesia, using the Kopf stereotactic frame. Approximately, half of the rats used were implanted. Four stainless steel screws (MX-0090-2, Small Parts Inc., Miami, Fla.) were placed bilaterally on the dura mater of the fronto-parietal cortex. A prefabricated Pinnacle pre-amplifier was connected to the screws. The system has three bio-potential channels—2 EEG and 1 EMG. Prefabricated head implants (Pinnacle Inc., USA) ensured accurate electrode positioning and reliable, robust contacts. Cable artifacts are eliminated by pre-amplification of the EEG and EMG waveforms at the animal's head. EEG data were sampled a rate of 200 Hz. All data are transferred via a USB connection to a PC. Rats were left unrestrained for 2 weeks to recovery from surgery before EEG recordings were performed. Each rat was kept in a separate cage under 12-hours dark-light cycles with free access to food and water. Origin Microcal 7.0 and Diadem (National Instruments) was used in conjunction to the acquisition system for data analysis (e.g., time joint frequency analysis).

[2] = tested on: drug-resistant epileptic seizures; assay: Add-on glucocorticosteroid or ACTH treatment in pediatric drug resistant epilepsy (review of clinical data); type: in vivo, human; details: for occurrence of seizures (seizure burden vs baseline): add-on treatment, pediatric drug resistant epilepsy, 53 treatments
Experimental: The study was conducted according to the Declaration of Helsinki Criteria and to the procedures for compassionate drug administration approved by the Ethic Committees of Carlo Besta Institute (Milan, Italy). Oral informed consent from was obtained from parents by specialized neurologists. Administration of GCs was considered compassion care since all patients had intractable life threatening seizures. The clinical data of 43 patients (Table 4) of the Carlo Besta Neurological Institute (Milan, Italy) was reviewed. […] Patients with a history of epileptic syndromes known to respond to steroids (i.e., West, Lennox-Gastaut, Landau-Kleffner and Rasmussen encephalitis) as well as patients affected by documented inflammatory brain disease were excluded. All the subjects received steroid treatment on an in-patient basis.
Patients received GCs or ACTH therapy because of one of the following: 1) >50% increase in seizure frequency; 2) development of non-convulsive status epilepticus; 3) presence of epilepsia partialis continua (EPC). Before GCs or ATCH treatment, patients were evaluated by a team of neurologists, physiologists, and underwent EEG and routine laboratory examinations. Antiepileptic treatments were maintained during the steroid course (Table 4).
Steroidal treatment was, when successful, repeated in case of seizure recurrence. […] GCs or ATCH therapy was considered successful when: 1) seizure frequency decreased by 50%; 2) status epilepticus was stopped; 3) or when epilepsia partialis continua (EPC) was stopped/reduced enough to allow voluntary movement in the affected body district. Duration of treatment was limited to acute dosing, which was repeated when the initial response was beneficial. The effects of length of treatments and efficacy/toxicity of chronic use are not presented herein, since this study design only addressed a proof of principle use of steroids in pediatric epilepsy.

[3] = tested on: seizures; details: drug-resistant children, Araki 2006; cited from earlier work
[4] = tested on: CD3+ T-lymphocytes; assay: FACS analysis of circulating T-lymphocytes in rat blood; type: in vivo; details: after dexamethasone treatment, rats
Experimental: (§1) The schedule of blood sampling is illustrated in FIG. 14A. Blood was collected from the tail vein using a fixed catheter (Venisystem, Abbocath, 22 G, 300-500 μl/sample). For FACS analysis, 150 μL of whole blood were incubated with a combination of specific antibodies recognizing T-cell subpopulation (CD3+). In particular mouse anti-rat CD8a-FITC, CD3-R-PE and CD4-PE-Cy5 (BD-Pharmingen) were added (2 μL, 5 μL and 5 μL respectively) to blood samples. Blood samples were analyzed by the FACS-Core facility at the Cleveland Clinic. IL-1β ELISA-tests was purchased from Pierce Biotechnology Inc. and performed as described by the vendor.

[5] = tested on: IL-1β; assay: Serum IL-1β ELISA in rats; type: in vivo, rat; details: dexamethasone treatment
Experimental: as §1

[6] = tested on: blood-brain barrier; details: IL-RA pre-treatment; previously reported; cited from earlier work
[7] = tested on: pilocarpine-induced SE; details: data from Marchi 2009, cited from earlier work
[8] = dexamethasone pre-treatment, vs pilocarpine alone

C[C@@H]1C[C@H]2[C@@H]3CCC4=CC(=O)C=C[C@]4(C)[C@@]3(F)[C@@H](O)C[C@]2(C)[C@@]1(O)C(=O)CO [dexamethasone]
time to onset of SE [1, 8]: significantly delayed | time to onset of SE ([1]; dexamethasone pre-treatment, vs pilocarpine alone, listed as Dexa): delayed | mortality associated with pilocarpine SE (twelve hours) ([1]; dexamethasone pre-treatment, seizures not stopped with barbiturates): significantly decreased; also recorded: abolishes mortality; also recorded: reduced mortality; also recorded: abolished | early EEG burst clusters (time-joint frequency analysis) [1, 8]: reduced in amplitude and frequency | effects of single dosage of 1 mg/day on pilocarpine seizures ([1]; single dosage of 1 mg/day): did not exert any discernable effects | occurrence of seizures (seizure burden vs baseline) [2]: significantly reduced | MRI FLAIR hyperintensity ([2]; patient after dexamethasone treatment, concurrent with seizure reduction): decrease in FLAIR hyperintensity | seizure frequency vs untreated patients [3]: reduced seizure frequency | number of circulating CD3+ T-lymphocytes [4]: drastic reduction; also recorded: drastic decrease | relative percentage of CD8+ subpopulation among CD3+ cells [4]: significantly affected | serum IL1-β levels [5]: reduced | serum IL1-β levels ([5]; listed as Dexamethasone): significantly reduced

C[C@]12CCC(=O)C=C1CC[C@@H]1[C@@H]2[C@@H](O)C[C@@]2(C)[C@H]1CC[C@]2(O)C(=O)CO [hydrocortisone]
blood-brain barrier function and seizure frequency in epileptic patients receiving anti-inflammatory therapy ([2]; epileptic patients, clinical dosage): comparable effects

IL-RA: IL-1 receptor antagonist, data from Marchi 2009
pilocarpine-induced BBB damage [6]: prevents BBB damage | early EEG burst clusters (time-joint frequency analysis) ([7]; IL1-RA pre-treatment): reduced in amplitude and frequency | number of rats developing SE / seizure occurrence ([7]; IL-RA 30 μg/kg tail vein 2 hours before scopolamine/pilocarpine): reduces seizure occurrence | mortality associated with pilocarpine seizures (twelve hours) ([7]; IL-RA pre-treatment): decreased | time to onset of SE ([7]; IL-RA pre-treatment): delayed

adrenocorticotropic hormone (SYSMEHFRWGKPVGKKRRPVKVYPNGAEDESAEAFPLEF; Corticotropin; UniProt P01189 138-176, looked up) [ACTH]
occurrence of seizures (seizure burden vs baseline) [2]: significantly reduced
